Data set [1] deals with HUVEC. In words: Inhibition of cisplatin-induced ICAM-1 protein expression in HUVEC cells preincubated for 30 mins followed by cisplatin addition and measured after 24 hrs by Western blot analysis. It is filed as functional, cell-based. The note with it: Homo sapiens, dose 10-30 µM, time 24.5 hrs. For orientation: Immunoblotting shows a protein as a band on a membrane.
For data set [2], the target named is T1, NF-kappa-B inhibitor alpha (Homo sapiens) (UniProt P25963).
T1 sequence (whole entry): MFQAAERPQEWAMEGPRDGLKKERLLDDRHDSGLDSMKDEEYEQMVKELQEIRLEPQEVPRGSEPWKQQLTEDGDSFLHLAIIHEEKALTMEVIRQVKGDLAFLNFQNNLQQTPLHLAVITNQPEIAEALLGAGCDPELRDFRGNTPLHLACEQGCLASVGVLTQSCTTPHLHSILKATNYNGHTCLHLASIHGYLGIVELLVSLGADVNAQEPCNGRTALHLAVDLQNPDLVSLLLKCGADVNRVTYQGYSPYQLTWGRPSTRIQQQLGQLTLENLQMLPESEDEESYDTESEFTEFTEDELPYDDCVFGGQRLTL
Put plainly: Inhibition of cisplatin-induced phosphorylation of IkappaBalpha at Ser32/36 residue in HUVEC cells at 30 uM preincubated with eNOS inhibitor, N(G)-nitro-L-arginine methyl ester followed by compound addition and further incubated for 1 hr by Western blot analysis. It is filed as cell-based.

For data set [3], the system named is HUVEC. In words: Cytotoxicity against HUVEC cells assessed as reduction in cell viability at <=30 uM measured after 24 hrs by MTT assay. The data set is classed as toxicity, cell-based. The following applies: human. A general note: Formazan colour is commonly taken as a measure of viable cells.
In data set [4] the test system is HUVEC. Put plainly: Improvement in cisplatin-induced endothelial monolayer integrity in HUVEC cells assessed as reduction in transmembrane movement of albumin at 30 uM preincubated with compound in presence of eNOS inhibitor, N(G)-nitro-L-arginine methyl ester followed by cisplatin stimulation and measured after 2 hrs. The note with it: Homo sapiens. It is filed as functional, cell-based.

For data set [5], the target named is Transcription factor p65 (Homo sapiens) (UniProt Q04206). Put plainly: Inhibition of cisplatin-induced phosphorylation of p65 subunit at Ser536 residue in HUVEC cells at 30 uM incubated for 1 hr by Western blot analysis. It is filed as cell-based.
Transcription factor p65 (Homo sapiens), sequence (Q04206 whole entry): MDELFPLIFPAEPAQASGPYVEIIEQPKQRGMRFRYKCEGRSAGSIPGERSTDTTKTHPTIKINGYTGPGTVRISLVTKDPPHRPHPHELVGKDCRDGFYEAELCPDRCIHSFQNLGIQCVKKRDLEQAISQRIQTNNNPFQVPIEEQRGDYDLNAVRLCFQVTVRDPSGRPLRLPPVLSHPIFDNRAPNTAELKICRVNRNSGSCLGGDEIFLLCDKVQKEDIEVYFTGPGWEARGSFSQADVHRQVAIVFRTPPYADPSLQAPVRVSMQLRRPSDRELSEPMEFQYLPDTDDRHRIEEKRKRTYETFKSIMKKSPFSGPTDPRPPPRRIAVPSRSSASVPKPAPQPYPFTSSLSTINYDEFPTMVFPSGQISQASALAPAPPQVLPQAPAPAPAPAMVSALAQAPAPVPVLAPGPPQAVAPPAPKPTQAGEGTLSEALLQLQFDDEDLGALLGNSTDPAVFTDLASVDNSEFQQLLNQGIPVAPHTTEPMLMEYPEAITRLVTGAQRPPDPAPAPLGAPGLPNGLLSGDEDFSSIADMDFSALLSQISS
Data set [6] has as its system HUVEC. Put plainly: Improvement in cisplatin-induced endothelial monolayer integrity in HUVEC cells assessed as reduction in transmembrane movement of albumin at 30 uM preincubated with compound in presence of PI3K inhibitor, wortmannin followed by cisplatin stimulation and measured after 2 hrs. The data set is classed as functional, cell-based. The following applies: Homo sapiens.

Data set [7] deals with HUVEC. Put plainly: Inhibition of cisplatin-induced TRPC1 phosphorylation in [32P] orthophosphate labeled HUVEC cells at 30 uM incubated for 15 mins in presence of cisplatin and PI3K inhibitor, wortmannin by Western blot analysis. The data set is classed as cell-based. The note with it: Homo sapiens.
The subject of data set [8] is HUVEC. In words: Inhibition of cisplatin-induced PKCalpha translocation in HUVEC cells assessed as increase in PKCalpha accumulation in cytosol at 30 uM incubated for 15 mins in presence of cisplatin by Western blot analysis. The data set is classed as functional, subcellular. The following applies: Homo sapiens.
In data set [9] the test system is HUVEC. In words: Downregulation of cisplatin-induced ICAM1 protein expression in HUVEC cells at 30 uM preincubated with PI3K inhibitor, wortmannin followed by compound addition and further incubated for 1 hr by Western blot analysis. The note with it: Homo sapiens. It is filed as functional, cell-based.
For data set [10], the system named is HUVEC. In words: Downregulation of cisplatin-induced ICAM1 protein expression in HUVEC cells at 100 uM incubated for 1 hr by Western blot analysis. It is filed as functional, cell-based. The following applies: Homo sapiens.
For data set [11], the target named is T2, Nitric oxide synthase 3 (Homo sapiens) (UniProt P29474).
T2 sequence (whole entry): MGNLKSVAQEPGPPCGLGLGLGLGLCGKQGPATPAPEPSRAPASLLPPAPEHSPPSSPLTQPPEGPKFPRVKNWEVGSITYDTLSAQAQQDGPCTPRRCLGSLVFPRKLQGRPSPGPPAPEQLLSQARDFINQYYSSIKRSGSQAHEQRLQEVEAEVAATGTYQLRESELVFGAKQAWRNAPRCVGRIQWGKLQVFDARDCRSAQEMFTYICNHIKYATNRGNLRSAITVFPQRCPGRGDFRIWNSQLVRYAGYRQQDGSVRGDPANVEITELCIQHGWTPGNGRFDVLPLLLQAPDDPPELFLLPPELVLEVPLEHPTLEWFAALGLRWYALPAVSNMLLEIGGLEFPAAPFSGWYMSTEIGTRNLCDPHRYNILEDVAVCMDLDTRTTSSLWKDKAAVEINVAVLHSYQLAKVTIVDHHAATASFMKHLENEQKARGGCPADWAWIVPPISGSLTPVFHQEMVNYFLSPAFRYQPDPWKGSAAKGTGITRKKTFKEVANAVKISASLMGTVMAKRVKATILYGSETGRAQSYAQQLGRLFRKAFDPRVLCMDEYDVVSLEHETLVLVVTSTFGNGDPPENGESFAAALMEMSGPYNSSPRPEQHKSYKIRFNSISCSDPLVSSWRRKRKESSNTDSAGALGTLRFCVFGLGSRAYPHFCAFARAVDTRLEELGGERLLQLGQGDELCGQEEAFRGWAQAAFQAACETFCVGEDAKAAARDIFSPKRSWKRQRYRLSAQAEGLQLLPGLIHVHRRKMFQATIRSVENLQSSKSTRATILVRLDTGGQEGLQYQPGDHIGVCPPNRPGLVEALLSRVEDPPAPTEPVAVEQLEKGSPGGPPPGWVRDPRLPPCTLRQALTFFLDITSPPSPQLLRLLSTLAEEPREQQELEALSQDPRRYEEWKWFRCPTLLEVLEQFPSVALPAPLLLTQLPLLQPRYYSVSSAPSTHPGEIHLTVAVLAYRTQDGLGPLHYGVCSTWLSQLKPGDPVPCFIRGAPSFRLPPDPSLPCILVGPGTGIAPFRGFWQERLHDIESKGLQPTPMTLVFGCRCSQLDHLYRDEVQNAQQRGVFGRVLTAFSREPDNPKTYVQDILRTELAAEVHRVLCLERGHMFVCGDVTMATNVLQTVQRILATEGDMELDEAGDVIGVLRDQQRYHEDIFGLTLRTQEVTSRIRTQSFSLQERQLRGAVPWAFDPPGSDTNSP
Put plainly: Activation of eNOS activity in cisplatin-treated HUVEC cells assessed as increase in eNOS phosphorylation at Ser1177 residue at 30 uM preincubated with eNOS inhibitor, N(G)-nitro-L-arginine methyl ester followed by compound addition measured after 5 to 240 mins by Western blot analysis. The data set is classed as cell-based. The following applies: time 5-240 min.

Data set [12] deals with HUVEC. Put plainly: Activation of AKT in cisplatin-treated HUVEC cells assessed as increase in AKT phosphorylation at 30 uM measured after 5 to 240 mins by Western blot analysis. The note with it: Homo sapiens, filed as activator, time 5-240 min. The data set is classed as cell-based.
Data set [13] has as its system HUVEC. Put plainly: Inhibition of cisplatin-induced store operated Ca2+ release in HUVEC cells at 30 uM preincubated with compound in presence of eNOS inhibitor, N(G)-nitro-L-arginine methyl ester followed by cisplatin stimulation by Fura-2 AM staining based calcium influx assay. The following applies: Homo sapiens. It is filed as functional, cell-based.
In data set [14] the test system is HUVEC. In words: Upregulation of cytosolic p65 level in cisplatin-treated HUVEC cells at 30 uM incubated for 1 hr by Western blot analysis. It is filed as functional, cell-based. The note with it: Homo sapiens.
The subject of data set [15] is HUVEC. In words: Improvement in cisplatin-induced endothelial monolayer integrity in HUVEC cells assessed as increase in transendothelial electric resistance at 30 uM preincubated with compound in presence of PI3K inhibitor, wortmannin followed by cisplatin stimulation and measured after 45 mins. The data set is classed as functional, cell-based. The note with it: Homo sapiens.

Data set [16] deals with HUVEC. In words: Downregulation of cisplatin-induced PKCalpha translocation in HUVEC cells at 30 uM incubated for 15 mins in presence of cisplatin and eNOS inhibitor, N(G)-nitro-L-arginine methyl ester by Western blot analysis. It is filed as functional, cell-based. The note with it: Homo sapiens.

Activity calls are given as the source filed them. The rule behind the calls is not given here.

Take `C=C1CC[C@@H]2[C@](C)(CO)[C@H](O)CC[C@@]2(C)[C@@H]1C/C=C1/C(=O)OC[C@H]1O` [ANDROGRAPHOLIDE]: in the data set on HUVEC [1], the inhibition entry is “Dose-Dependent Effect”. For the same molecule, the inhibition entry (in [2]; in the data set on HUVEC [7]; with HUVEC [13]) was “inactive” throughout. Moreover, the Activity result in the data set on HUVEC [3] was “Non-Toxic”. In addition, the result (in the data set with HUVEC [4]; in the data set on HUVEC [6]; in the data set with HUVEC [9]; in data set [11]; in the data set with HUVEC [15]; in the data set with HUVEC [16]) was inactive. Further, the inhibition result (in [5]; in the data set on HUVEC [8]) was “Active” throughout. Moreover, the result in the data set with HUVEC [10], in the data set on HUVEC [12] and in the data set on HUVEC [14] was Active.
